Peptide text beside a SMILES is read from it. * marks the point of attachment. pNA = O=[N+]([O-])c1ccc(N*)cc1
Legend:
[1] = target: T1, X-prolyl dipeptidyl-aminopeptidase in human serum (Homo sapiens, UniProt P27487); experiment: Direct photometric assay of substrate hydrolysis (p-nitroaniline liberated, 385 nm) with human serum as enzyme source; type: biochemical; settings: for Enzyme activity (μmole/min/1 serum ± S.E.): 3 cases; for Relative enzyme activity (%) Human serum pH 7.0: pH 7.0, 0.15 M Tris-maleate buffer; for Relative enzyme activity (%) Human serum pH 7.0 / Relative enzyme activity (%) Human serum pH 8.7: glycyl-L-proline p-nitroanilide = 100; for Relative enzyme activity (%) Human serum pH 8.7: pH 8.7, 0.15 M glycine-NaOH buffer
T1 construct: Even if crude enzyme such as human serum is used as enzyme source, the activity is accurately measured; from tissue; host or cells: human serum (normal subjects and patients)
Protocol: The relation between the incubation time and the amount of substrate hydrolyzed was examined, glycyl-L-proline p-nitroanilide and human serum being used as substrate and enzyme source, respectively, and the assay of the substrate hydrolyzed was carried out by the following direct photometric method.
Glycyl-L-proline p-nitroanilide tosylate was dissolved in 2% non-ionic detergent (Nikkol NP-10; Nikko Chemicals, Osaka, Japan) aqueous solution in a concentration of 3 mM to prepare the substrate solution. The following four tubes were prepared:
(1) the experimental tube contained 0.5 ml of 0.15 M glycine-NaOH buffer (pH 8.7), 0.5 ml of the substrate solution, and 0.05 ml of human serum
(2) the blank tube contained 0.5 ml of the 0.15 M glycine-NaOH buffer, 0.5 ml of the substrate solution and 0.05 ml of water.
(3) the standard tube contained 0.5 ml of the buffer, 0.5 ml of the substrate and 0.05 ml of 3 mM p-nitroaniline aqueous solution.
(4) the control tube contained 0.5 ml of the buffer and 0.5 ml of the substrate.
All tubes were incubated at 37° C. for the periods listed in Table 1, and the reaction was stopped by the addition of 3.0 ml of 1M acetate buffer (pH 4.2) to every tube. To the control tube, 0.05 ml of the human serum was added after stopping the reaction. A photometer was adjusted to zero with the blank, and the absorbances of the experimental (E), control (C), and standard (S) were read at 385 nm in a cuvette with 1 cm light path. p-Nitroaniline liberated by the enzyme reaction was calculated by the equation [formula]
(§1) 3mM substrate solutions were prepared as in Example 22, various dipeptide derivatives or salts thereof being used as substrates. The relative enzyme activities toward various substrates, and the rates and optimum pHs of hydrolysis of various substrates with the enzyme were measured as in Example 22.
(§2) ^c Activities were measured at pH 7.0 in 0.15 M Trismaleate buffer or
(§3) at pH 8.7 in 0.15 M glycineNaOH buffer. The values are the mean of
The activity of X-prolyl dipeptidyl-aminopeptidase was measured as in Example 22, glycyl-L-proline p-nitroanilide and 88 normal human sera being used as substrate and enzyme, respectively.
The activity of X-prolyl dipeptidyl-aminopeptidase was measured as in Example 22, glycyl-L-proline p-nitroanilide and human sera from patients being used as substrate and enzyme sources, respectively.
The activity of X-prolyl dipeptidyl-aminopeptidase was measured as in Example 22, various X-L-prolyl p-nitroanilides, and human sera from patients being used as substrates and enzyme sources, respectively.

[2] = tested on: purified human submaxillary enzyme (X-prolyl dipeptidyl-aminopeptidase); experiment: Direct photometric assay of substrate hydrolysis with purified human submaxillary enzyme; type: biochemical; settings: for Optimum pH: Tris-maleate, glycine-NaOH or amidiol buffer; for Relative enzyme activity (%) Purified human submaxillary enzyme pH 7.0: pH 7.0, 0.15 M Tris-maleate buffer, glycyl-L-proline p-nitroanilide = 100; for Km: pH 7.0, Tris-maleate buffer, mean of duplicate experiments
Protocol: as §1
^a Activities were measured in 0.15 M Trismaleate buffer at pH 5.6-8.
and in 0.15 M glycineNaOH buffer at pH 8.2-9.4, purified human
submaxillary enzyme being used. For Lalanyl-L-proline pnitroanilide,
amidiol buffer were used instead of glycine buffer, since glycine buffer
interfered the photometry at pH 9-10.
^b Km values were measured at 7.0 in Trismaleate buffer, purified
human submaxillary enzyme being used. The values are the mean of duplicat
as §2, §3
^d The purified enzyme was obtained by the following method; The
enzyme was solubilized from the microsomal fraction by autodigestion, and
subsequently purified by (NH4)2 SO4 fractionation followed
by Sephadex G200 chromatography.

[3] = target: T1, X-prolyl dipeptidyl-aminopeptidase in human serum; experiment: Azo-coupling assay of substrate hydrolysis (548 nm) with human serum as enzyme source; type: biochemical; settings: 37° C., 30 minutes, pH 8.7
Protocol: The relation between the amount of enzyme and the amount of substrate hydrolyzed was examined, glycyl-L-proline p-nitroanilide tosylate and human serum being used as substrate and enzyme source, respectively, and the assay of the substrate hydrolyzed being carried out by the following azo-coupling method.
The following tubes were prepared: (1) the experimental tube contained 1.0 ml of 0.15 M glycine-NaOH buffer (pH 8.7), 1.0 ml of the substrate solution prepared in Example 22, and the volume listed in table 2 of human serum.
(2) the control tube contained 1.0 ml of the glycine-NaOH buffer, and 1.0 ml of the substrate solution.
Both experimental and control tubes were incubated at 37° C. for 30 minutes, and 0.1 ml of the serum was added to the control tube. The reaction was stopped by adding 0.4 ml of 30% perchloric acid aqueous solution. After centrifuging at 3000 rpm for 10 minutes, each 0.5 ml of the supernatant was transferred to another tube; besides 0.1 ml of […] p-nitroaniline aqueous solution and 2.4 ml of 30% perchloric acid solution were added to the standard tube, and 2.5 ml of the perchloric acid solution was added to the blank tube.
To all the four tubes, 0.5 ml of 0.2% sodium nitrite aqueous solution at 4° C., and they were kept at 4° C. for 10 minutes. Then, 0.5 ml of freshly prepared 0.5% ammonium sulfamate aqueous solution was added. After 2 minutes, 1.0 ml of 0.05% N-(1-naphthyl) ethylenediamine solution was added and the mixtures were incubated at 37° C. for 30 minutes in the dark.
A photometer was adjusted to zero with the blank, and the absorbances of the experimental (E), control (C), and standard (S) were read at 548 nm.
p-Nitroaniline formed enzymically was calculated by the equation: [formula] the volume of […] p-nitroaniline aqueous solution used in the standard tube (ml)).

[4] = Time for perfect dissolution in water with stirring; type: physicochemical; settings: 0.23 mg in 100 ml water with stirring
Protocol: 0.23 mg of crystalline glycyl-L-proline p-nitroanilide tosylate was dissolved in 100 ml water with stirring. It took ca. 30 minutes at 20° C. and ca. 18 minutes at 30° C. for perfect dissolution.
On the other hand, 0.23 mg of porous glycyl-L-proline p-nitroanilide tosylate, which was prepared by freezing […]. mole aqueous solution of the same at -40° C. and then drying the freezed solid at 0.05 mmHg, was dissolved in 100 ml water with stirring as in the above procedure. It only took ca. 10 seconds at 20° C. and ca. 5 seconds at 30° C. for perfect dissolution.

[5] = human sera from patients, Gastric Cancer
[6] = human sera from patients, Hepatitis

T1 sequence (P27487 39-766 limits assumed): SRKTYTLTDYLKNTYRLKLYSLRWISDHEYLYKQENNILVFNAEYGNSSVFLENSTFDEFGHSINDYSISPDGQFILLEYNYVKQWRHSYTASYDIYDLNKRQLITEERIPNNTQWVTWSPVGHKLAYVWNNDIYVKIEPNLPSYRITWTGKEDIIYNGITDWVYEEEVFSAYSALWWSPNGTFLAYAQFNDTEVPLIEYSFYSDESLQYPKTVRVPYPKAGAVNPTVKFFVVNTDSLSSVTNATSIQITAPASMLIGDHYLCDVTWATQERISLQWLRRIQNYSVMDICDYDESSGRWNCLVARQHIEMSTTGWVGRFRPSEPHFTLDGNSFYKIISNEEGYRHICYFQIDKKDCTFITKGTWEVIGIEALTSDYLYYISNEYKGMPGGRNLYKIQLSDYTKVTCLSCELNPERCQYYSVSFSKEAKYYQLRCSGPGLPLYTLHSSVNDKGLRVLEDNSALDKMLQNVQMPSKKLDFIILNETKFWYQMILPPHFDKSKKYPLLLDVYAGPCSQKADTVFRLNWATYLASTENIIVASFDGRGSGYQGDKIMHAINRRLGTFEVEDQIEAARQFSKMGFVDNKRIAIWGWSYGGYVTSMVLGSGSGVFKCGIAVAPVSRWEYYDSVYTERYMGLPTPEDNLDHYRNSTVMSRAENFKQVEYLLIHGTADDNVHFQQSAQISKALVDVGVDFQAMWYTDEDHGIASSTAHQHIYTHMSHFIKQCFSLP

| Enzyme activity (μmole/min/1 serum ± S.E.) [1, 5] [μmole/min/1 serum] | Enzyme activity (μmole/min/1 serum ± S.E.) [1, 6] [μmole/min/1 serum] | Enzyme activity (μmole/min/1 serum ± S.E.) ([1]; human sera, Normal (control)) [μmole/min/1 serum] | Relative enzyme activity (%) Human serum pH 7.0 ([1]; human serum) [%] | Relative enzyme activity (%) Human serum pH 8.7 ([1]; human serum) [%] | Optimum pH [2] | Relative enzyme activity (%) Purified human submaxillary enzyme pH 7.0 [2] [%] | Km [2] [µM] | Compound | further results |
| --- | --- | --- | --- | --- | --- | --- | --- | --- | --- |
|  |  |  |  |  |  |  |  | Br.O=C(Nc1ccc([N+](=O)[O-])cc1)[C@@H]1CCCN1 [L-proline p-nitroanilide, L-Proline p-nitroanilide hydrobromide, reference compound] | rate of hydrolysis by human serum, as % of hydrolysis of glycyl-L-proline p-nitroanilide ([1]; human serum): 0.7% |
| 17.6 ± 1.6 | 102.5 ± 17.5 | 37.7 ± 9.0 | 34 | 28 | 8.5-8.7 | 37 | 81 | N[C@@H](CC(=O)O)C(=O)N1CCC[C@H]1C(=O)Nc1ccc([N+](=O)[O-])cc1 [L-aspartyl-L-proline p-nitroanilide, L-Aspartyl-L-proline p-nitroanilide] (H-Asp-Pro-pNA) |  |
| 13.9 ± 1.3 | 74.8 ± 17.6 | 27.5 ± 7.5 | 54 | 37 | 8.5-8.7 | 58 | 23 | N[C@@H](CCC(=O)O)C(=O)N1CCC[C@H]1C(=O)Nc1ccc([N+](=O)[O-])cc1 [L-glutamyl-L-proline p-nitroanilide, L-Glutamyl-L-proline p-nitroanilide] (H-Glu-Pro-pNA) |  |
|  |  |  |  |  |  |  |  | Cc1ccc(S(=O)(=O)O)cc1.NCC(=O)N1CCC[C@H]1C(=O)Nc1ccc([N+](=O)[O-])cc1 [glycyl-L-proline p-nitroanilide tosylate, Glycyl-L-proline p-nitroanilide tosylate] (H-Gly-Pro-pNA) | Amount of p-nitroaniline formed ([3]; volume of serum 0.01 ml): 14.24 n mole; Amount of p-nitroaniline formed ([3]; volume of serum 0.02 ml): 32.91 n mole; Amount of p-nitroaniline formed ([3]; volume of serum 0.03 ml): 45.89 n mole; Amount of p-nitroaniline formed ([3]; volume of serum 0.04 ml): 62.50 n mole; Amount of p-nitroaniline formed ([3]; volume of serum 0.05 ml): 82.44 n mole; Amount of p-nitroaniline formed ([3]; volume of serum 0.10 ml): 155.06 n mole; time for perfect dissolution ([4]; 20° C., listed as crystalline glycyl-L-proline p-nitroanilide tosylate): ca. 30 minutes; time for perfect dissolution ([4]; 30° C., listed as crystalline glycyl-L-proline p-nitroanilide tosylate): ca. 18 minutes |
| 18.5 ± 1.9 | 99.5 ± 17.0 | 36.6 ± 9.6 | 83 | 75 | 8.5-8.7 | 86 | 14 | C[C@H](N)C(=O)N1CCC[C@H]1C(=O)Nc1ccc([N+](=O)[O-])cc1.Cl [L-alanyl-L-proline p-nitroanilide, L-Alanyl-L-proline p-nitroanilide hydrochloride] (H-Ala-Pro-pNA) |  |
|  |  |  |  |  |  |  |  | Cc1ccc(S(=O)(=O)O)cc1.NCC(=O)N1CCC[C@H]1C(=O)Nc1ccc([N+](=O)[O-])cc1 [glycyl-L-proline p-nitroanilide tosylate] (H-Gly-Pro-pNA) | time for perfect dissolution ([4]; 20° C., tosylate): ca. 10 seconds; time for perfect dissolution ([4]; 30° C., tosylate): ca. 5 seconds |

| Compound | Enzyme activity (μmole/min/1 serum ± S.E.) [1, 5] [μmole/min/1 serum] | Enzyme activity (μmole/min/1 serum ± S.E.) [1, 6] [μmole/min/1 serum] | Enzyme activity (μmole/min/1 serum ± S.E.) ([1]; human sera, Normal (control)) [μmole/min/1 serum] | Relative enzyme activity (%) Human serum pH 7.0 ([1]; human serum) [%] | Relative enzyme activity (%) Human serum pH 8.7 ([1]; human serum) [%] | Optimum pH [2] | Relative enzyme activity (%) Purified human submaxillary enzyme pH 7.0 [2] [%] | Km [2] [µM] | further results |
| --- | --- | --- | --- | --- | --- | --- | --- | --- | --- |
| Cc1ccc(S(=O)(=O)O)cc1.Cc1ccc(S(=O)(=O)O)cc1.NCCCC[C@H](N)C(=O)N1CCC[C@H]1C(=O)Nc1ccc([N+](=O)[O-])cc1 [L-lysyl-L-proline p-nitroanilide, L-Lysyl-L-proline p-nitroanilide ditosylate] (H-Lys-Pro-pNA) | 8.2 ± 0.8 | 49.7 ± 10.2 | 18.2 ± 4.7 | 122 | 71 | 8.5-8.7 | 121 | 120 |  |
| Cc1ccc(S(=O)(=O)O)cc1.Cc1ccc(S(=O)(=O)O)cc1.N=C(N)NCCC[C@H](N)C(=O)N1CCC[C@H]1C(=O)Nc1ccc([N+](=O)[O-])cc1 [L-arginyl-L-proline p-nitroanilide, L-Arginyl-L-proline p-nitroanilide ditosylate] (H-Arg-Pro-pNA) | 6.0 ± 0.7 | 35.5 ± 6.8 | 13.8 ± 3.6 | 86 | 55 | 7.8-8.0 | 94 | 230 |  |
